# Test results as given in patent US9937162B2, “Methods of treating and preventing vascular instability diseases” (THE UNIVERSITY OF UTAH RESEARCH FOUNDATION, priority 2014, dated 2018).
# Key:
# Ccm2 ecKO mice = assay: Chronic treatment of Ccm2 ecKO mice, CCM lesions quantified by postmortem MRI; format: in vivo; details: treated from P5 to 5 months of age, tempol 1 mM in drinking water or cholecalciferol-enhanced chow (+25 IU/g D3)
# Protocol: Chronic treatment studies of the effects of tempol and cholecalciferol in inducible endothelial-specific Ccm2 knockout mice (Ccm2^f/−; +/Tg(Pdgfb-iCreER^T2), also referred to herein as Ccm2 ecKO mice or endothelial knockout mice, were performed, inter alia, to evaluate the potential of tempol and/or cholecalciferol administration for the treatment of CCM disease (see Chan A C et al., J Clin Invest 121, 1871-1881 (2011) regarding the Ccm2 ecKO mice). 5 days after birth (P5), Ccm2 ecKO mice litters were assigned to a standard chow (HARLAN 2018, 1.5 IU/g D3), a standard chow plus tempol in drinking water (1 mM), or a cholecalciferol-enhanced chow (HARLAN 2018+25 IU/g D3). The chow was provided to the mother of each litter until the mice were weaned at P21. […]
# At 5 months of age, mice were sacrificed by exsanguination (blood was collected for later analysis), and subsequent perfusion with saline and then 4% formaldehyde. […] Lesion area and number were quantified by two blinded reviewers using IMAGEJ and OSIRIX software. […]
# The results of both reviewers were tabulated. […] FIG. 1B depicts a normalized number of CCM lesions as measured by MRI in Ccm2 ecKO mice. […] FIG. 1C is a graph depicting the number of lesions of various sizes as measured by MRI in Ccm2 ecKO mice. […]
# ARF6 = ARF6 activation assay (GTP-ARF6 pulldown, western blot) in siCCM2 HMVEC-D cells; format: cell-based
# Protocol: (§1) The timing of effects of cholecalciferol on the endothelium was assessed by evaluating the effect of knockdown of CCM2, and subsequent treatment with cholecalciferol, on a panel of signaling pathways associated with endothelial instability. The signaling pathways assessed included: ADP-ribosylation factor 6 (ARF6), cell division control protein 42 homolog (CDC42), transforming protein RhoA (RHOA), phosphorylation of myosin light chain (pMLC), Ras-related C3 botulinum toxin substrate 1 (RAC1), and Ras-related protein R-Ras (RRAS) (see Broman M T et al., Circ Res 98, 73-80 (2006); Broman M T et al., Trends Cardiovasc Med 17, 151-156 (2007); Eliceiri B P et al., Mol Cell 4, 915-924 (1999); Sawada J et al., Cancer Cell 22, 235-249 (2012); Weis S et al., J Cell Biol 167, 223-229 (2004); Wojciak-Stothard B et al., Vascul Pharmacol 39, 187-199 (2002); and Zhu W et al., Nature 492, 252-255 (2012)). […]
# (§2) For RhoA, ARF6, Rac1/cdc42, and R-Ras activation assays, crude total cell lysate were generated and GTP-RhoA, ARF6, Rac1/cdc42, and R-Ras were precipitated with Rhotekin-RBD (EMD MILLIPORE), GGA3-PBD (CELL BIOLABS), PAK-1-PBD (EMD MILLIPORE), and Raf-1 RBD, respectively. […] RhoA, ARF6, Rac1/cdc42, and R-Ras were detected by western blotting with antibodies (RhoA, Rac1, and R-Ras antibodies were from CELL SIGNALING TECHNOLOGY; ARF6 and cad42 antibodies were from EMD MILLIPORE).
# RHOA = assay: RhoA activation assay (GTP-RhoA pulldown, western blot) in siCCM2 HMVEC-D cells; format: cell-based; details: siCCM2 HMVEC-D monolayers, 100 nM or 10 μM, 24 hours
# Protocol: as §1, §2
# pMLC = assay: Phosphorylation of myosin light chain (pMLC) in siCCM2 HMVEC-D cells; format: cell-based; details: siCCM2 HMVEC-D monolayers, 100 nM or 10 μM, 60 minutes
# Protocol: The timing of effects of cholecalciferol on the endothelium was assessed by evaluating the effect of knockdown of CCM2, and subsequent treatment with cholecalciferol, on a panel of signaling pathways associated with endothelial instability. The signaling pathways assessed included: ADP-ribosylation factor 6 (ARF6), cell division control protein 42 homolog (CDC42), transforming protein RhoA (RHOA), phosphorylation of myosin light chain (pMLC), Ras-related C3 botulinum toxin substrate 1 (RAC1), and Ras-related protein R-Ras (RRAS) (see Broman M T et al., Circ Res 98, 73-80 (2006); Broman M T et al., Trends Cardiovasc Med 17, 151-156 (2007); Eliceiri B P et al., Mol Cell 4, 915-924 (1999); Sawada J et al., Cancer Cell 22, 235-249 (2012); Weis S et al., J Cell Biol 167, 223-229 (2004); Wojciak-Stothard B et al., Vascul Pharmacol 39, 187-199 (2002); and Zhu W et al., Nature 492, 252-255 (2012)).
# Wild-type, siCTRL, or siCCM2 treated HMVEC-D cells were incubated with either 100 nM or 10 μM cholecalciferol (TOCRIS BIOSCIENCE), 7-DHC (SIGMA-ALDRICH), or vehicle (0.5% DMSO) for 60 minutes (pMLC, ARF6, RAC, CDC42, RRAS) or 24 hours (RHOA), unless otherwise indicated. After treatment, the cells were washed with ice-cold PBS and lysed in 50 mM Tris pH 7.4, 150 mM NaCl, 10 mM MgCl2, 10% glycerol, 1% NP-40, 1× protease inhibitors, and 1× phosphatase inhibitors.
# CDC42 = assay: cdc42 activation assay (pulldown, western blot) in HMVEC-D cells; format: cell-based; details: up to 10 μM, 60 minutes
# Protocol: as §1, §2
# RAC1 = assay: Rac1 activation assay (pulldown, western blot) in HMVEC-D cells; format: cell-based; details: up to 10 μM, 60 minutes
# Protocol: as §1, §2
# RRAS = assay: R-Ras activation assay (pulldown, western blot) in HMVEC-D cells; format: cell-based; details: up to 10 μM, 60 minutes
# Protocol: as §1, §2
structure (smiles),measurement,setting,value
C=C1CC[C@H](O)C/C1=C/C=C1\CCC[C@]2(C)[C@@H]([C@H](C)CCCC(C)C)CC[C@@H]12 [cholecalciferol],"number of CCM lesions as measured by MRI, compared to standard chow",Ccm2 ecKO mice,approximately half as many lesions
same,time to inhibition of ARF6 activation,"ARF6; siCCM2 HMVEC-D cells, time course",≤ 5 min
same,CCM2 knockdown-induced activation of ARF6,"ARF6; siCCM2 HMVEC-D monolayers, 100 nM or 10 μM, 60 minutes",inhibited
same,CCM2 knockdown-induced activation of RHOA,RHOA,inhibited
same,CCM2 knockdown-induced activation of pMLC,pMLC,inhibited
same,basal activation of CDC42,CDC42,nor did treatment of up to 10 μM cholecalciferol appear to basally inhibit activation
same,basal activation of RAC1,RAC1,nor did treatment of up to 10 μM cholecalciferol appear to basally inhibit activation
same,basal activation of RRAS,RRAS,nor did treatment of up to 10 μM cholecalciferol appear to basally inhibit activation
"CC1(C)CC(O)CC(C)(C)N1[O] [tempol, 4-hydroxy-2,2,6,6-tetramethylpiperidine 1-oxyl]","number of CCM lesions as measured by MRI, compared to standard chow",Ccm2 ecKO mice,approximately half as many lesions
